Publication PMC6048275, “Methylpiperidinium Iodides as Novel Antagonists for α7 Nicotinic Acetylcholine Receptors” (Frontiers in Pharmacology, 2018)

Biological target: T1, rat hippocampal α7 nAChR (endogenous, CA1 stratum radiatum interneurons) (Rattus norvegicus, UniProt Q05941)
T1 construct: gene Chrna7; native full-length homopentamer in rat hippocampal CA1 interneurons in brain slices
Test: whole-cell voltage clamp, choline-induced current, rat CA1 interneurons in slice
Conditions: 10 mM choline puffs; antagonist; -70 mV; pH 7.4; room temperature; approximate, read from concentration-response curve; voltage-independent; native receptor, α7β2 possibly mixed; read-out: 50% inhibition of ICh

T1 sequence (Q05941 23-502): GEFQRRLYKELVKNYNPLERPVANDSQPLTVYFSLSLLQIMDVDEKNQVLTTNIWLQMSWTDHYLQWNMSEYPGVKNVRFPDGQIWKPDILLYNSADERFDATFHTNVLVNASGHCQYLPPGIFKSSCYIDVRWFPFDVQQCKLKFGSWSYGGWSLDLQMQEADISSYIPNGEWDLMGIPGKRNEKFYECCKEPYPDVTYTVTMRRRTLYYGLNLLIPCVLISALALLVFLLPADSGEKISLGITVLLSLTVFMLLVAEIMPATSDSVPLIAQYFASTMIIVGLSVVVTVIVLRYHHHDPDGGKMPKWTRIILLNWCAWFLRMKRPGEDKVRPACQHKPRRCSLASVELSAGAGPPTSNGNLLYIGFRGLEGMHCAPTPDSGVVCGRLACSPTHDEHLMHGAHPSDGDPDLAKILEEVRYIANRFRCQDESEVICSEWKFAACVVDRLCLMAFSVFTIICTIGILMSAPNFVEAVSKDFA

With `CCCCCCCOc1ccc(OCC[N+]2(C)CCCCC2)cc1` [12a] the IC50 was roughly 5 µM.
